According to the NIST ThermoML archive (doi:10.1021/je700260f):

Conditions: 323.14 K, Liquid, Vibrating tube method

FC(C(F)(F)F)C(F)(F)F [1,1,1,2,3,3,3-heptafluoropropane]
Conditions	mass density [kg/m3]
18469 kPa	1413.4
18489 kPa	1413.6
18518 kPa	1413.8
18639 kPa	1414.5
18664 kPa	1414.6
18688 kPa	1414.7
18713 kPa	1414.8
18738 kPa	1414.8
18764 kPa	1415.1
18787 kPa	1415.1
18806 kPa	1415.3
18836 kPa	1415.4
19030 kPa	1416.6
19049 kPa	1416.5
19073 kPa	1416.7
19091 kPa	1416.8
19111 kPa	1416.8
19136 kPa	1416.9
19224 kPa	1417.4
19244 kPa	1417.5
19276 kPa	1417.6
19303 kPa	1417.9
19335 kPa	1418
19359 kPa	1418.1
19382 kPa	1418.2
19410 kPa	1418.4
19431 kPa	1418.5
19452 kPa	1418.4
19473 kPa	1418.7
19509 kPa	1418.8
19534 kPa	1419.1
19563 kPa	1419.2
19591 kPa	1419.1
19608 kPa	1419.2
19637 kPa	1419.5
19667 kPa	1419.6
19693 kPa	1419.8
19721 kPa	1419.9
19746 kPa	1419.9
19771 kPa	1420
19795 kPa	1420.5
19830 kPa	1420.4
19857 kPa	1420.6
19893 kPa	1420.7
19917 kPa	1420.9
19942 kPa	1421.1
19968 kPa	1421.2
19996 kPa	1421.3
20014 kPa	1421.4
20047 kPa	1421.4
20075 kPa	1421.5
20101 kPa	1421.8
20124 kPa	1421.9
20452 kPa	1423.5
20511 kPa	1423.8
20538 kPa	1423.8
20571 kPa	1424.1
20600 kPa	1424.3
20632 kPa	1424.4
20657 kPa	1424.6
20681 kPa	1424.6
20715 kPa	1424.8
20735 kPa	1424.9
20759 kPa	1425
20780 kPa	1425.1
20814 kPa	1425.2
20837 kPa	1425.4
20864 kPa	1425.5
20891 kPa	1425.6
20919 kPa	1425.8
20943 kPa	1425.8
20963 kPa	1426
20994 kPa	1426.2
21021 kPa	1426.3
21041 kPa	1426.4
21069 kPa	1426.5
21100 kPa	1426.5
21124 kPa	1426.7
21151 kPa	1426.8
21174 kPa	1427
21195 kPa	1427.2
21219 kPa	1427.1
21243 kPa	1427.2
21271 kPa	1427.4
21296 kPa	1427.5
21318 kPa	1427.7
21353 kPa	1427.8
21376 kPa	1428.1
21404 kPa	1428.1
21424 kPa	1428.1
21456 kPa	1428.3
21478 kPa	1428.4
21511 kPa	1428.6
21546 kPa	1428.8
21572 kPa	1428.9
21597 kPa	1429
21630 kPa	1429.1
21660 kPa	1429.3
21684 kPa	1429.4
21712 kPa	1429.4
21734 kPa	1429.6
22001 kPa	1430.9
22031 kPa	1431
22058 kPa	1431.1
22088 kPa	1431.3
22114 kPa	1431.5
22137 kPa	1431.4
22174 kPa	1431.7
22209 kPa	1431.8
22233 kPa	1432
22272 kPa	1432.1
22308 kPa	1432.2
22334 kPa	1432.5
22366 kPa	1432.6
22390 kPa	1432.7
22418 kPa	1432.7
22439 kPa	1432.9
22462 kPa	1433.1
22489 kPa	1433.2
22513 kPa	1433.3
22533 kPa	1433.3
22571 kPa	1433.6
22602 kPa	1433.6
22627 kPa	1433.8
22657 kPa	1434
22685 kPa	1434.1
22721 kPa	1434.2
22744 kPa	1434.3
22777 kPa	1434.5
22801 kPa	1434.6
22825 kPa	1434.6
22862 kPa	1434.8
22889 kPa	1435
22927 kPa	1435.2
22962 kPa	1435.2
23026 kPa	1435.6
23049 kPa	1435.7
23075 kPa	1435.7
23101 kPa	1436
23130 kPa	1436.1
23163 kPa	1436.3
23185 kPa	1436.3
23221 kPa	1436.4
23254 kPa	1436.5
23276 kPa	1436.7
23305 kPa	1436.8
23328 kPa	1437
23354 kPa	1437.1
23380 kPa	1437.2
23402 kPa	1437.2
23428 kPa	1437.5
23454 kPa	1437.5
23484 kPa	1437.7
23510 kPa	1437.7
23538 kPa	1437.9
23560 kPa	1438
23587 kPa	1438.1
23609 kPa	1438.2
23776 kPa	1439
23810 kPa	1439
23832 kPa	1439.2
23865 kPa	1439.2
23891 kPa	1439.5
23918 kPa	1439.6
23949 kPa	1439.6
23975 kPa	1439.9
23998 kPa	1439.9
24025 kPa	1440
24056 kPa	1440
24079 kPa	1440.3
24109 kPa	1440.4
24134 kPa	1440.5
24156 kPa	1440.7
24187 kPa	1440.7
24223 kPa	1440.9
24254 kPa	1441.1
24277 kPa	1441.2
24304 kPa	1441.1
24342 kPa	1441.4
24400 kPa	1441.5
24420 kPa	1441.7
24564 kPa	1442.3
24596 kPa	1442.6
24658 kPa	1442.8
24699 kPa	1443
24727 kPa	1443.1
24768 kPa	1443.2
24794 kPa	1443.4
24828 kPa	1443.6
24859 kPa	1443.8
24889 kPa	1443.8
24914 kPa	1444
24955 kPa	1444.1
24984 kPa	1444.1
25017 kPa	1444.3
25047 kPa	1444.4
25081 kPa	1444.7
25116 kPa	1444.8
25141 kPa	1445
25410 kPa	1446.1
25440 kPa	1446.3
25947 kPa	1448.3
25974 kPa	1448.4
26063 kPa	1448.8
26227 kPa	1449.5
26309 kPa	1449.7
